# Values of other authors, collected in US9375441B2, “Lactulose for bowel evacuation” (Cumberland Pharmaceuticals, priority 2011, dated 2016).
# How the values were obtained:
# [1] = tested on: patients at increased risk for colorectal cancer
# [2] = not given; remark: listed apart in the source
# [3] = tested on: patients with a history of chronic constipation
compound,measurement,setting,value
"OC[C@H]1O[C@@H](O[C@@H]2[C@@H](CO)O[C@](O)(CO)[C@H]2O)[C@H](O)[C@@H](O)[C@H]1O [lactulose, 4-O-b-D-Galactopyranosyl-D-fructofuranose]","patients with diarrhea sometime during the bowel preparation, %",[1]; 12 g lactulose powder once per day from 48 hours before MR colonography,38%
same,"patients with diarrhea sometime during the bowel preparation, number","[1]; 12 g lactulose powder once per day from 48 hours before MR colonography, low-fiber diet, oral gadolinium contrast",77
same,"patients in whom diarrhea occurred just prior to imaging, number",[1]; of the 77 patients with diarrhea,48
same,solubility in water,,freely soluble
same,state in which oral doses reach the colon,[2]; no hydrolysing enzyme in human gastrointestinal tissue,virtually unchanged
same,absorption from the gastrointestinal tract,[2]; oral,poorly absorbed
same,number of bowel movements per day and number of days on which bowel movements occur,[3],increases
